Source: patent US5366958A, “Localized delivery using fibronectin conjugates” (The Liposome Company, Inc., priority 1993, dated 1994)

How the values were obtained:
[1] = ocular application; cited from earlier work
[2] = format: in vivo, mouse (female Swiss Webster); settings: intra-articular, 2 ul, normalized to maximum possible value of 100%
Description: For this example control SPLVs were prepared as described in Section 4.3. using the following formulation: 100 mg EPC, 3.7 mg PE, and 10 mg indomethacin were dissolved in chloroform and then dried down to a film. The indomethacin was entrapped in the SPLVs by resuspending the film in ether, adding the aqueous phase and sonicating while evaporating. Trace amounts of radiolabeled ^14 C-indomethacin were incorporated to quantify retention of drug in joints of injected test animals.
Twenty-five female Swiss Webster mice were anesthetized with 50 mg/kg pentobarbitol and divided into 5 treatment groups. Group 1 was treated with unentrapped ^14 C-indomethacin (trace amount) in PBS buffer solution. Group 2 was treated with ^14 C-indomethacin entrapped in SPLVs (control SPLVs). Group 3 was treated with fibronectin-modified control SPLVs (non-covalent association) prepared by incubation of the SPLV-entrapped ^14 C-indomethacin with 0.3 mg fibronectin (FN, Seragen, Inc., Boston, Mass.; or Collaborative Research, Inc., Lexington, Mass.) for 2 hours before the SPLVs were repeatedly washed to remove unincorporated materials. Groups 4 and 5 were treated with SPLVs in which fibronectin was covalently attached to the liposomes. […] Two drops of glacial acetic acid were then added and samples were dark adapted over night before radioactivity was determined.

Row | Compound | effectiveness in treating recurrent corneal erosion [1] | % Total 14C-Indomethacin Remaining in Joint, 5 Hours ([2]; 5 hours post-injection) [%] | % Total 14C-Indomethacin Remaining in Joint, 24 Hours ([2]; 24 hours post-injection) [%]
1 | fibronectin | effective |  | 
2 | COc1ccc2c(c1)c(CC(=O)O)c(C)n2C(=O)c1ccc(Cl)cc1 [Unentrapped 14C-Indomethacin, indomethacin] |  | 4.7 | 1.0
